{"source": "ChEMBL document CHEMBL5214933", "about": "“Discovery of Selenium-Containing STING Agonists as Orally Available Antitumor Agents” (J Med Chem, 2022)", "key": {"[1]": {"target": "T1, Stimulator of interferon genes protein (Mus musculus) (UniProt Q3TBT3)", "T1 sequence (whole entry)": "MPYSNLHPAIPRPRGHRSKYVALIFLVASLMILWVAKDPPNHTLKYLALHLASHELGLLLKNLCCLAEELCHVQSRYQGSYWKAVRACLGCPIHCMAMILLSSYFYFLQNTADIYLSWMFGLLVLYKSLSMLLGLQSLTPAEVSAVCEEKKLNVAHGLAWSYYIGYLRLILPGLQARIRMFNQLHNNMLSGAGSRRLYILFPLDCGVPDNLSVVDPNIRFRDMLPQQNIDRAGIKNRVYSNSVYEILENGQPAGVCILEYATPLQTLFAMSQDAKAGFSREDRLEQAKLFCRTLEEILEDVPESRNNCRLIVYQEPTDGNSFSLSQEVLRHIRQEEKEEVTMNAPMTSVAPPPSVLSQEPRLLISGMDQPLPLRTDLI", "assay": "Agonist activity at STING in mouse MEF cells assessed as increase in CXCL10 mRNA expression at 10 uM measured after 3 hrs by qRT-PCR analysis", "assay_type": "cell-based", "settings": "filed as agonist"}, "[2]": {"assay": "Half life in Sprague-Dawley rat at 50 mg/kg, po measured for 1440 mins by LC-MS/MS analysis", "assay_type": "ADME, organism-based", "settings": "in vivo"}, "[3]": {"system": "CT26", "assay": "Immunological memory derived antitumor activity against mouse CT26 cells implanted in naive BALB/c mouse assessed as suppression of tumor growth at 20 mg/kg, po administered once every 5 days for 23 days starting from day 8 followed by reinoculation of cells into mouse on day 61 and measured for 50 days", "assay_type": "functional", "settings": "time 50 day"}, "[4]": {"system": "Stimulator of interferon genes protein (Homo sapiens), Q86WV6 [UNDEFINED MUTATION]", "sequence (Q86WV6 whole entry, looked up, stated change not applied)": "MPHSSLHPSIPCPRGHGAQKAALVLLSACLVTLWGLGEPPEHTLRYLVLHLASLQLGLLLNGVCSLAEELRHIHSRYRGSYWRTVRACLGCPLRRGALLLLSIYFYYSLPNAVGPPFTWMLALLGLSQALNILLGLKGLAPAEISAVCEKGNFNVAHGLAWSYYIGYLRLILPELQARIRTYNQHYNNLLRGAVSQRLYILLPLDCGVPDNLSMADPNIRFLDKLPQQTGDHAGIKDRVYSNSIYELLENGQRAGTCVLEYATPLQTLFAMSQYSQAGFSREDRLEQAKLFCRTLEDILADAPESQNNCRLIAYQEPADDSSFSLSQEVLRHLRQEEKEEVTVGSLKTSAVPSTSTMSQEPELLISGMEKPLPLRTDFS", "assay": "Binding affinity to recombinant human STING H232 variant expressed in Escherichia coli BL21 (DE3) assessed as thermal stabilization by measuring change in melting temperature at 2 mM incubated for 30 mins by SYPRO orange dye based differential scanning fluorimetry assay"}, "[5]": {"assay": "Stability in dog plasma assessed as interconversion into (S)-4-(5,6-Dimethoxybenzo[b]selenophen-2-yl)-2-ethyl-4-oxobutanoic acid incubated for 24 hrs by normal-phase HPLC analysis", "assay_type": "ADME, cell-free, Canis lupus familiaris"}, "[6]": {"assay": "Permeability of the compound in PBS buffer incubated for 5 hrs by PAMPA-based LC-MS/MS analysis", "assay_type": "ADME", "settings": "read-out: permeability"}, "[7]": {"system": "CT26", "assay": "Antitumor activity against mouse CT26 cells implanted in naive BALB/c mouse assessed as tumor growth regression at 20 mg/kg, po administered once every 5 days and measured after 30 days by digital caliper analysis relative to control", "assay_type": "functional", "settings": "time 30 day"}, "[8]": {"target": "T2, Stimulator of interferon genes protein (Homo sapiens, UniProt Q86WV6)", "assay": "Agonist activity at STING in human THP-1 cells harboring IRF-inducible luciferase reporter construct assessed as increase in relative fluorescence unit incubated for 12 hrs by Quanti-luc reagent based assay", "assay_type": "cell-based"}, "[9]": {"system": "Mus musculus", "assay": "Immunostimulatory activity in naive […] mouse implanted with mouse MC38 cells assessed as increase in CD69-positive CD8 T cells in spleen at 30 mg/kg, po by FACS analysis (reference value: 8.9 %)", "assay_type": "functional, MC-38"}, "[10]": {"assay": "Stability in rat plasma assessed as interconversion into (S)-4-(5,6-Dimethoxybenzo[b]selenophen-2-yl)-2-ethyl-4-oxobutanoic acid incubated for 24 hrs by normal-phase HPLC analysis", "assay_type": "ADME, cell-free"}, "[11]": {"target": "T2, Stimulator of interferon genes protein", "assay": "Agonist activity at STING in human THP-1 cells assessed as increase in CXCL10 mRNA expression at 10 uM measured after 3 hrs by qRT-PCR analysis", "assay_type": "cell-based", "settings": "filed as agonist"}, "[12]": {"target": "T2, Stimulator of interferon genes protein", "assay": "Agonist activity at STING in human THP-1 cells assessed as increase in IFNbeta mRNA expression at 10 uM measured after 3 hrs by qRT-PCR analysis", "assay_type": "cell-based", "settings": "filed as agonist"}, "[13]": {"target": "T2, Stimulator of interferon genes protein", "assay": "Agonist activity at STING in human THP-1 cells harboring IRF-inducible luciferase reporter construct assessed as increase in TBK1 phosphorylation measured after 3 hrs by Western blot analysis", "assay_type": "cell-based", "settings": "filed as agonist, dose 10-50 µM, DDE = dose-dependent effect"}, "[14]": {"assay": "Oral bioavailability in Sprague-Dawley rat at 50 mg/kg measured for 1440 mins by LC-MS/MS analysis", "assay_type": "ADME, organism-based", "settings": "in vivo"}, "[15]": {"assay": "Clearance in Sprague-Dawley rat at 50 mg/kg, po measured for 1440 mins by LC-MS/MS analysis", "assay_type": "ADME, organism-based", "settings": "in vivo"}, "[16]": {"system": "Stimulator of interferon genes protein (Homo sapiens), Q86WV6 [UNDEFINED MUTATION]", "assay": "Binding affinity to recombinant human STING AQ variant expressed in Escherichia coli BL21 (DE3) assessed as thermal stabilization by measuring change in melting temperature at 0.1 mM incubated for 30 mins by SYPRO orange dye based differential scanning fluorimetry assay"}, "[17]": {"target": "T2, Stimulator of interferon genes protein", "assay": "Binding affinity to recombinant human STING H232 variant expressed in Escherichia coli BL21 (DE3) assessed as dissociation constant by single cycle SPR analysis"}, "[18]": {"target": "T2, Stimulator of interferon genes protein", "assay": "Agonist activity at STING in human THP-1 cells harboring IRF-inducible luciferase reporter construct assessed as increase in IRF3 phosphorylation measured after 3 hrs by Western blot analysis", "assay_type": "cell-based", "settings": "filed as agonist, dose 10-50 µM, DDE = dose-dependent effect"}, "[19]": {"target": "T2, Stimulator of interferon genes protein", "assay": "Agonist activity at STING in human THP-1 cells harboring IRF-inducible luciferase reporter construct assessed as fold change in ISG signalling at 20 uM incubated for 12 hrs by Quanti-luc reagent based assay relative to control", "assay_type": "cell-based", "settings": "filed as agonist"}, "[20]": {"assay": "Clearance in Sprague-Dawley rat at 5 mg/kg, iv measured for 1440 mins by LC-MS/MS analysis", "assay_type": "ADME, organism-based", "settings": "in vivo"}, "[21]": {"system": "Stimulator of interferon genes protein (Homo sapiens), Q86WV6 [UNDEFINED MUTATION]", "assay": "Binding affinity to recombinant human STING R232 variant expressed in Escherichia coli BL21 (DE3) assessed as thermal stabilization by measuring change in melting temperature at 0.1 mM incubated for 30 mins by SYPRO orange dye based differential scanning fluorimetry assay"}, "[22]": {"target": "T1, Stimulator of interferon genes protein (Mus musculus)", "assay": "Agonist activity at STING in mouse MEF cells assessed as increase in IL6 mRNA expression at 10 uM measured after 3 hrs by qRT-PCR analysis", "assay_type": "cell-based", "settings": "filed as agonist"}, "[23]": {"system": "4T1", "assay": "Antitumor activity against mouse 4T1 cells implanted in naive BALB/c mouse assessed as increase in Ki67-positive CD8 T cells in tumor at 20 mg/kg, po administered once every 5 days by FACS analysis (reference value: 14%)", "assay_type": "functional", "settings": "time 5 day"}, "[24]": {"system": "Mus musculus", "assay": "Immunostimulatory activity in naive […] mouse implanted with mouse MC38 cells assessed as increase in NK cells in spleen at 30 mg/kg, po by FACS analysis", "assay_type": "functional, organism-based", "settings": "MC-38"}, "[25]": {"assay": "Volume of distribution at steady state in Sprague-Dawley rat at 5 mg/kg, iv measured for 1440 mins by LC-MS/MS analysis", "assay_type": "ADME, organism-based", "settings": "in vivo, read-out: Vdss"}, "[26]": {"system": "Mus musculus", "assay": "Immunostimulatory activity in naive […] mouse implanted with mouse MC38 cells assessed as increase in CD69-positive NK cells in spleen at 30 mg/kg, po by FACS analysis (reference value: 4.7%)", "assay_type": "functional, MC-38"}, "[27]": {"system": "4T1", "assay": "Antitumor activity against mouse 4T1 cells implanted in naive BALB/c mouse assessed as increase in Ki67-positive CD4 T cells in tumor at 20 mg/kg, po administered once every 5 days by FACS analysis (reference value: 4.4%)", "assay_type": "functional", "settings": "time 5 day"}, "[28]": {"system": "Mus musculus", "assay": "Immunostimulatory activity in naive […] mouse implanted with mouse MC38 cells assessed as increase in NKT cells in spleen at 30 mg/kg, po by FACS analysis", "assay_type": "functional, organism-based", "settings": "MC-38"}}, "note": "Active and inactive are the calls of the source. The calls are words filed in the database; no cut-off is given here.", "data": [{"smiles": "CC[C@H](CC(=O)c1cc2cc(OC)c(OC)cc2[se]1)C(=O)O", "values": [{"measurement": "Activity", "setting": "[1]", "result": "Active"}, {"measurement": "half-life", "setting": "[2]", "result": 1.6, "unit": "h"}, {"measurement": "Activity", "setting": "[3]", "result": 100, "unit": "%"}, {"measurement": "ΔTm", "setting": "[4]", "result": 7.4, "unit": "°C"}, {"measurement": "Stability", "setting": "[5]", "result": "Stable"}, {"measurement": "Papp at 5 h", "setting": "[6]", "result": 2.04, "unit": "×10⁻⁶ cm/s"}, {"measurement": "Activity", "setting": "[7]", "result": 100, "unit": "%"}, {"measurement": "EC50", "setting": "[8]", "result": 9.24, "unit": "µM"}, {"measurement": "Activity", "setting": "[9]", "result": 94.2, "unit": "%"}, {"measurement": "Stability", "setting": "[10]", "result": "Stable"}, {"measurement": "Activity", "setting": "[11]", "result": "Active"}, {"measurement": "Activity", "setting": "[12]", "result": "Active"}, {"measurement": "Activity", "setting": "[13]", "result": "Dde"}, {"measurement": "bioavailability", "setting": "[14]", "result": 107, "unit": "%"}, {"measurement": "CL/F", "setting": "[15]", "result": 2.67, "unit": "mL/min/kg"}, {"measurement": "ΔTm", "setting": "[16]", "result": 30.3, "unit": "°C"}, {"measurement": "Kd", "setting": "[17]", "result": 23, "unit": "µM"}, {"measurement": "Activity", "setting": "[18]", "result": "Dde"}, {"measurement": "fold change (FC)", "setting": "[19]", "result": 37}, {"measurement": "clearance", "setting": "[20]", "result": 2.83, "unit": "mL/min/kg"}, {"measurement": "ΔTm", "setting": "[21]", "result": 18.1, "unit": "°C"}, {"measurement": "Activity", "setting": "[22]", "result": "Active"}, {"measurement": "Activity", "setting": "[23]", "result": 25.2, "unit": "%"}, {"measurement": "Activity", "setting": "[24]", "result": "Active"}, {"measurement": "Vd", "setting": "[25]", "result": 0.26, "unit": "L/kg"}, {"measurement": "Activity", "setting": "[26]", "result": 46.8, "unit": "%"}, {"measurement": "Activity", "setting": "[27]", "result": 25.4, "unit": "%"}, {"measurement": "Activity", "setting": "[28]", "result": "Active"}]}]}
